We go through nine compounds from ChEMBL document CHEMBL1821712, “Antimalarial β-carbolines from the New Zealand ascidian Pseudodistoma opacum” (J Nat Prod, 2011).

One experiment deals with Leishmania donovani. Briefly: Antiparasitic activity against Leishmania donovani MHOM/ET/67/L82 amastigotes/axenic stage forms incubated for 72 hrs by Alamar Blue staining based fluorometric assay. Type of experiment: functional, organism-based. The note with it: MHOM/ET/67/L82, 72 h. A general note: Alamar Blue is a resazurin reagent that responds to reducing activity.

Experiment [1] relates to Plasmodium falciparum. Briefly: Antiparasitic activity against Plasmodium falciparum K1 IEF stage forms incubated for 72 hrs by Alamar Blue staining based fluorometric assay. The note with it: K1, 72 h.
Experiment [2] relates to Trypanosoma brucei rhodesiense. Briefly: Antiparasitic activity against Trypanosoma brucei rhodesiense STIB 900 trypomastigotes stage forms incubated for 72 hrs by Alamar blue staining based fluorometric assay. It counts as functional, organism-based. The conditions noted are these: STIB 900, 72 h.
The test system of another experiment is Trypanosoma cruzi. Briefly: Antiparasitic activity against Trypanosoma cruzi Tulahuen C4 amastigotes stage forms incubated for 96 hrs by beta-galactosidase reporter gene assay. It counts as functional, organism-based. The conditions noted are these: Tulahuen C4, 96 h. A general note: In a reporter assay the amount or activity of a reporter protein is the signal.

The next experiment deals with L6. Briefly: Cytotoxicity against rat L6 cells incubated for 72 hrs by Alamar Blue staining based fluorometric assay. It counts as cell-based. The note with it: L6, 72 h.
Experiment [3] concerns Plasmodium falciparum. Nature of the experiment: Antiparasitic activity against chloroquine-sensitive Plasmodium falciparum 3D7. It counts as functional, organism-based.
Experiment [4] relates to Plasmodium falciparum. Nature of the experiment: Antiparasitic activity against chloroquine-resistant Plasmodium falciparum Dd2. It counts as functional, organism-based.

What is called IC50 is the concentration that gives 50% inhibition. Read a low IC50 as higher potency. Compound `CCCCCCCCCCCCCCCCOP(=O)([O-])OCC[N+](C)(C)C` [MILTEFOSINE] came in with an IC50 with Leishmania donovani of 0.53 µM.
As to `N=C(N)NCCCCc1nccc2c1[nH]c1ccccc12`, the IC50 was 6.4 µM in the experiment on Plasmodium falciparum [1]; above 200 µM in the experiment with Leishmania donovani; 12 µM in experiment [2]; 110 µM in the experiment on Trypanosoma cruzi; 84 µM in the experiment with L6.
Take `N=C(N)NCCCCc1nccc2c3ccc(Br)cc3n(O)c12` [OPACALINE B]: the IC50 in the experiment with Plasmodium falciparum [1] was determined as 4.5 µM; in the experiment with Leishmania donovani, 101 µM; in experiment [2], 27 µM; with Trypanosoma cruzi, 107 µM; in the experiment on L6, 120 µM.
The corresponding values for `O=C1c2ccccc2C(=O)N1CCCC1NCCc2c1[nH]c1ccccc21` (stereo not given) are 14 µM, 150 µM, 17 µM, 51 µM and 110 µM.
The like results for `N=C(N)NCCCc1nccc2c1[nH]c1ccccc12` were, in that order, 7.8 µM, above 200 µM, 7.7 µM, 130 µM and 101 µM.
`N=C(N)NCCC[C@H]1NCCc2c1[nH]c1cc(Br)ccc21`: the IC50 in the experiment on Plasmodium falciparum [3] came out at 3.5 µM; in the experiment on Plasmodium falciparum [4], 5.4 µM.
For `N=C(N)NCCCCc1nccc2c1[nH]c1cc(Br)ccc12` [OPACALINE A], the IC50 with Plasmodium falciparum [1] is 2.5 µM; in the experiment with Leishmania donovani, 130 µM; in experiment [2] it was 30 µM; in the experiment with Trypanosoma cruzi it was 86 µM; in the experiment with L6, 79 µM.
`O=C(Cn1ccnc1[N+](=O)[O-])NCc1ccccc1` [BENZNIDAZOLE] had an IC50 with Trypanosoma cruzi of 1.8 µM.
The compound `COc1cc([C@@H]2c3cc4c(cc3[C@H](O)[C@H]3COC(=O)[C@H]23)OCO4)cc(OC)c1OC` [PODOFILOX] yielded an IC50 with L6 of 0.019 µM.
